The values that follow come from US6803378B2, “HIV integrase inhibitors” (Bristol-Myers Squibb Company, priority 2000, dated 2004).

In one data set the target is T1, HIV-1 integrase (Human immunodeficiency virus type 1 group M subtype B, UniProt P04585).
T1 construct: Purified recombinant HIV-1 integrase was incubated with immobilized precleaved substrate DNA
Description: In vitro activity against integrase, Method A (immobilized precleaved substrate DNA, biotinylated target DNA, 96 well plate). Type of data set: biochemical. Conditions: Assay Method A, read-out: Percent inhibition of HIV Integrase at 70 uM. As to the method: (§1) The in vitro activities, against integrase, of compounds of the present invention were measured by one of the following three methods.
In Method A, the in vitro activity against integrase was measured in a manner which was similar to previously disclosed methods (cf. Hazuda, D. J.; Felock, P.; Witmer, M.; Wolfe, A.; Stillmock, K.; Grobler, J. A.; Espeseth, A.; Gabryelski, L.; Schleif, W.; Blau, C.; Miller, M. D. Science, 2000, 287, 646) Purified recombinant HIV-1 integrase was incubated with immobilized precleaved substrate DNA in a 96 well plate for 20 min at 37° C. After the integration complex was formed, compounds at desired concentrations were added to the wells followed by a 10 min incubation at 37° C. Biotinyted Target DNA was then added and the reaction was carried out for an additional 1 hour at 37° C. Wells were then washed thoroughly to remove any free DNA and integration activity was measured by using a commercial kit to quantitate the amount of biotinyted target DNA integrated into the substrate.
Consider `CN(Cc1ccccc1Cl)C(=O)/C=C(\O)C(=O)O` [Compound 10, 3-[(2-Chloro-benzyl)-methyl-carbamoyl]-2-hydroxy-acrylic acid], for which the inhibition (as a rule, how much of the control response was suppressed) at 70 µM turned out to be 79%.

The target of another data set is T2, HIV Integrase (Human immunodeficiency virus type 1 group M subtype B, UniProt P04585).
T2 construct: 0.26 ng of recombinant integrase was then incubated with the beads
As to the kind of experiment: In vitro activity against integrase, Method B (SPA assay). It counts as biochemical. Conditions: read-out: Percent inhibition of HIV Integrase at 70 uM. As for the experimental part:
as §1
(§2) In Method B, the in vitro activity against integrase was measured by binding, for each reaction, 5 pmole of biotin labeled substrate DNA to 100 ug of Streptavidin coated PVT SPA beads (Amersham Pharmacia Biotech). 0.26 ng of recombinant integrase was then incubated with the beads for 90 min at 37° C. Unbound enzyme was removed by washing the complex followed by addition of inhibitors and 0.1 fmol of P33 labeled target DNA. Reaction was stopped by adding EDTA to a final concentration of 10 mM. Samples were counted in TopCountNXT (Packard) and the CPM was used as a measure of integration. Reaction condition was as described in A. Engelman and R. Craigie, J. Virol. 69, 5908-5911 (1995). The sequences of substrate and target DNA were described in Nucleic Acid Research 22, 1121-1122 (1994).
For the compound `O=C(O)/C(O)=C/C(=O)N(Cc1ccc(F)cc1)Cc1ccc(F)cc1` [Compound 11, 3-[Bis-(4-fluoro-benzyl)-carbamoyl]-2-hydroxy-acrylic acid], the inhibition at 70 µM was found to be 97%.

In a further data set the target is T2, HIV Integrase. Description: In vitro activity against integrase, Method C (electroluminescence, ECL assay). Conditions: read-out: Percent inhibition of HIV Integrase at 70 uM. Type of data set: biochemical. As to the method: as §1, §2
Method C (Electroluminesence Assay):
The ECL assay of Method C is essentially the same as the SPA assay of Method B, except that 0.5 μg of Streptavidin coated magnetic beads and 0.5 pmol Ru labeled target DNA were used for each reaction instead of SPA beads and P33 labeled DNA. The samples were read in a M8 analyzer (IGEN International, Inc).
As to `O=C(O)/C(O)=C/C(=O)N(CCCc1ccccc1F)Cc1ccc(F)cc1` [Compound 51, 3-{(4-Fluoro-benzyl)-[3-(2-fluoro-phenyl)-propyl]-carbamoyl}-2-hydroxy-acrylic acid], the inhibition at 70 µM turned out to be 100%. Same read-out and setting: under `O=C(O)/C(O)=C/C(=O)N(CCOc1ccccc1)Cc1ccc(F)cc1` [Compound 49, 3-[(4-Fluoro-benzyl)-(2-phenoxy-ethyl)-carbamoyl]-2-hydroxy-acrylic acid] stands 99%. Same read-out and setting: under `CN(Cc1ccc(Cl)cc1)C(=O)/C=C(\O)C(=O)O` [Compound 45, 3-[(4-Chloro-benzyl)-methyl-carbamoyl]-2-hydroxy-acrylic acid] stands 99%. Take `CN(Cc1ccc(F)c(Br)c1)C(=O)C=C(O)C(=O)O` [Compound 48, 3-[(3-Bromo-4-fluoro-benzyl)-methyl-carbamoyl]-2-hydroxy-acrylic acid]: the inhibition at 70 µM came out at 99%. On the same count and under the same terms, under `CN(Cc1ccco1)C(=O)/C=C(\O)C(=O)O` [Compound 75, 3-(Furan-2-ylmethyl-methyl-carbamoyl)-2-hydroxy-acrylic acid] stands 91%; under `CNC(=O)c1cccc(C(c2ccc(F)cc2)N(C)C(=O)/C=C(\O)C(=O)O)c1` (centres unmarked) [Compound 79, 3-{[(4-Fluoro-phenyl)-(3-methylcarbamoyl-phenyl)-methyl]-methyl-carbamoyl}-2-hydroxy-acrylic acid], 90%.

On to `CN(CCCc1ccc(F)cc1)C(=O)/C=C(\O)C(=O)O` [Compound 46, 3-{[3-(4-Fluoro-phenyl)-propyl]-methyl-carbamoyl}-2-hydroxy-acrylic acid], for which the inhibition at 70 µM was found to be 99%. As for `O=C(O)/C(O)=C/C(=O)N(CCCc1ccc(-c2ccccc2)cc1)Cc1ccc(F)cc1` [Compound 85, 3-[(3-Biphenyl-4-yl-propyl)-(4-fluoro-benzyl)-carbamoyl]-2-hydroxy-acrylic acid], the inhibition at 70 µM worked out at 94%. With `CC(C)N(CCCc1ccccc1)C(=O)/C=C(\O)C(=O)O` [Compound 44, 2-Hydroxy-3-[isopropyl-(3-phenyl-propyl)-carbamoyl]-acrylic acid], the inhibition at 70 µM is 95.5%. Take `O=C(O)/C(O)=C/C(=O)N(CCCc1ccccc1Cl)Cc1ccc(F)cc1` [Compound 87, 3-[[3-(2-Chloro-phenyl)-propyl]-(4-fluoro-benzyl)-carbamoyl]-2-hydroxy-acrylic acid]: the inhibition at 70 µM amounted to 99%. `O=C(CCCCCNC(=O)/C(O)=C/C(=O)N(CCCc1ccccc1Cl)Cc1ccc(F)cc1)NS(=O)(=O)c1ccccc1` [Compound 147, 2-Hydroxy-but-2-enedioic acid 1-[(6-benzenesulfonylamino-6-oxo-hexyl)-amide] 4-[[3-(2-chloro-phenyl)-propyl]-(4-fluoro-benzyl)-amide]]: the inhibition at 70 µM came to 98%. For the compound `CC(c1ccc(F)cc1)N(C)C(=O)/C=C(\O)C(=O)O` (centres unmarked) [Compound 50, 3-{[1-(4-Fluoro-phenyl)-ethyl]-methyl-carbamoyl}-2-hydroxy-acrylic acid], the inhibition at 70 µM amounted to 99%. In the case of `CN(C(=O)/C=C(\O)C(=O)O)C(Cc1ccc(F)cc1)c1ccc(F)cc1` (centres unmarked) [Compound 78, 3-{[1,2-Bis-(4-fluoro-phenyl)-ethyl]-methyl-carbamoyl}-2-hydroxy-acrylic acid], the inhibition at 70 µM was found to be 75%. On to `O=C(O)/C(O)=C/C(=O)N(Cc1ccc(F)cc1)CC1CC1c1ccccc1` (centres unmarked) [Compound 52, 3-[(4-Fluoro-benzyl)-(2-phenyl-cyclopropylmethyl)-carbamoyl]-2-hydroxy-acrylic acid], for which the inhibition at 70 µM is 99%.

Turning to `O=C(O)/C(O)=C/C(=O)N(CCOc1ccc(F)cc1)Cc1ccc(F)cc1` [Compound 47, 3-{(4-Fluoro-benzyl)-[2-(4-fluoro-phenoxy)-ethyl]-carbamoyl}-2-hydroxy-acrylic acid], the inhibition at 70 µM was found to be 99%.

Tested on in another data set: not given
Assay: not given
Details: not given
As to `CN(Cc1ccccc1Cl)C(=O)/C=C(\O)C(=O)O` [Compound 10, 3-[(2-Chloro-benzyl)-methyl-carbamoyl]-2-hydroxy-acrylic acid], the melting point (as a rule, the temperature of the solid-liquid transition) fell in the range of 84 to 86 °C. Same read-out and setting: under `O=C(O)/C(O)=C/C(=O)N(Cc1ccc(Cl)cc1)Cc1ccc(Cl)c(Cl)c1` stands 152 °C (dec.).

Take `O=C(O)/C(O)=C/C(=O)N(Cc1ccc(F)cc1)Cc1ccc(F)cc1` [Compound 11, 3-[Bis-(4-fluoro-benzyl)-carbamoyl]-2-hydroxy-acrylic acid]: the melting point is > 147 °C (dec.).
